# Several values for one entry are separate records, joined by “and”; a condition that tells them apart may be missing. Equal entries are not always repeated. Numbers after ± are expanded uncertainties.
# Details: 348.15 K; 101.33 kPa; Liquid; Vibrating tube method
row,Compound,mass density [kg/m3]
1,CCCC[N+]1(C)CCCC1.N#CN=C=[N-] [1-butyl-1-methylpyrrolidinium dicyanamide],985.987 ± 2.1
2,CCCC[n+]1ccccc1.O=S(=O)([N-]S(=O)(=O)C(F)(F)F)C(F)(F)F [1-butylpyridinium bis[(trifluoromethyl)sulfonyl]imide],1402.6 ± 2.9
3,CCCCCCCC[N+](C)(CCCCCCCC)CCCCCCCC.O=C([O-])C(F)(F)F [methyltrioctylammonium trifluoroacetate],930.772 ± 2

# Same assay, conditions: 353.15 K; 101.33 kPa; Liquid; Vibrating tube method
row,Compound,mass density [kg/m3]
1,CCCCCCCC[N+](C)(CCCCCCCC)CCCCCCCC.O=C([O-])C(F)(F)F [methyltrioctylammonium trifluoroacetate],927.648 ± 2

# Same assay, conditions: 358.15 K; 101.33 kPa; Liquid; Alternating current cell with electrodes
row,Compound,electrical conductivity [S/m]
1,CCCC[N+]1(C)CCCC1.N#CN=C=[N-] [1-butyl-1-methylpyrrolidinium dicyanamide],4.58 ± 0.069
2,CCCC[n+]1ccccc1.O=S(=O)([N-]S(=O)(=O)C(F)(F)F)C(F)(F)F [1-butylpyridinium bis[(trifluoromethyl)sulfonyl]imide],1.8 ± 0.027
3,CC[S+](C)CC.O=S(=O)([N-]S(=O)(=O)C(F)(F)F)C(F)(F)F [diethylmethylsulfonium bis[(trifluoromethyl)sulfonyl]imide],2.88 ± 0.043
4,CCCCCCCC[N+](C)(CCCCCCCC)CCCCCCCC.O=C([O-])C(F)(F)F [methyltrioctylammonium trifluoroacetate],0.0444 ± 0.00067
5,CC[S+](CC)CC.O=S(=O)([N-]S(=O)(=O)C(F)(F)F)C(F)(F)F [triethylsulfonium bis((trifluoromethyl)sulfonyl)imide],2.91 ± 0.044

# Same assay, conditions: 358.15 K; 101.33 kPa; Liquid; Falling or rolling sphere viscometry
row,Compound,viscosity
1,CCCC[N+]1(C)CCCC1.N#CN=C=[N-] [1-butyl-1-methylpyrrolidinium dicyanamide],8.801 ± 0.17 mPa·s and 8.017 ± 0.16 mPa·s
2,CCCC[n+]1ccccc1.O=S(=O)([N-]S(=O)(=O)C(F)(F)F)C(F)(F)F [1-butylpyridinium bis[(trifluoromethyl)sulfonyl]imide],9.663 ± 0.17 mPa·s
3,CC[S+](C)CC.O=S(=O)([N-]S(=O)(=O)C(F)(F)F)C(F)(F)F [diethylmethylsulfonium bis[(trifluoromethyl)sulfonyl]imide],8.183 ± 0.14 mPa·s
4,CCCCCCCC[N+](C)(CCCCCCCC)CCCCCCCC.O=C([O-])C(F)(F)F [methyltrioctylammonium trifluoroacetate],53.33 ± 0.99 mPa·s
5,CC[S+](CC)CC.O=S(=O)([N-]S(=O)(=O)C(F)(F)F)C(F)(F)F [triethylsulfonium bis((trifluoromethyl)sulfonyl)imide],6.963 ± 0.12 mPa·s

# Same assay, conditions: 358.15 K; 101.33 kPa; Liquid; Vibrating tube method
row,Compound,mass density [kg/m3]
1,CCCC[N+]1(C)CCCC1.N#CN=C=[N-] [1-butyl-1-methylpyrrolidinium dicyanamide],980.656 ± 2.1
2,CCCC[n+]1ccccc1.O=S(=O)([N-]S(=O)(=O)C(F)(F)F)C(F)(F)F [1-butylpyridinium bis[(trifluoromethyl)sulfonyl]imide],1393.63 ± 2.8
3,CCCCCCCC[N+](C)(CCCCCCCC)CCCCCCCC.O=C([O-])C(F)(F)F [methyltrioctylammonium trifluoroacetate],924.529 ± 2

# Same assay, conditions: 363.15 K; 101.33 kPa; Liquid; Vibrating tube method
row,Compound,mass density [kg/m3]
1,CCCCCCCC[N+](C)(CCCCCCCC)CCCCCCCC.O=C([O-])C(F)(F)F [methyltrioctylammonium trifluoroacetate],921.418 ± 2

# Same assay, conditions: 368.15 K; 101.33 kPa; Liquid; Alternating current cell with electrodes
row,Compound,electrical conductivity [S/m]
1,CCCC[N+]1(C)CCCC1.N#CN=C=[N-] [1-butyl-1-methylpyrrolidinium dicyanamide],5.32 ± 0.08
2,CCCC[n+]1ccccc1.O=S(=O)([N-]S(=O)(=O)C(F)(F)F)C(F)(F)F [1-butylpyridinium bis[(trifluoromethyl)sulfonyl]imide],2.16 ± 0.032
3,CC[S+](C)CC.O=S(=O)([N-]S(=O)(=O)C(F)(F)F)C(F)(F)F [diethylmethylsulfonium bis[(trifluoromethyl)sulfonyl]imide],3.37 ± 0.051
4,CCCCCCCC[N+](C)(CCCCCCCC)CCCCCCCC.O=C([O-])C(F)(F)F [methyltrioctylammonium trifluoroacetate],0.0647 ± 0.00097
5,CC[S+](CC)CC.O=S(=O)([N-]S(=O)(=O)C(F)(F)F)C(F)(F)F [triethylsulfonium bis((trifluoromethyl)sulfonyl)imide],3.4 ± 0.051

# Same assay, conditions: 368.15 K; 101.33 kPa; Liquid; Falling or rolling sphere viscometry
row,Compound,viscosity
1,CCCC[N+]1(C)CCCC1.N#CN=C=[N-] [1-butyl-1-methylpyrrolidinium dicyanamide],7.467 ± 0.14 mPa·s and 6.774 ± 0.13 mPa·s
2,CCCC[n+]1ccccc1.O=S(=O)([N-]S(=O)(=O)C(F)(F)F)C(F)(F)F [1-butylpyridinium bis[(trifluoromethyl)sulfonyl]imide],7.904 ± 0.14 mPa·s
3,CC[S+](C)CC.O=S(=O)([N-]S(=O)(=O)C(F)(F)F)C(F)(F)F [diethylmethylsulfonium bis[(trifluoromethyl)sulfonyl]imide],6.826 ± 0.12 mPa·s
4,CCCCCCCC[N+](C)(CCCCCCCC)CCCCCCCC.O=C([O-])C(F)(F)F [methyltrioctylammonium trifluoroacetate],36.92 ± 0.73 mPa·s
5,CC[S+](CC)CC.O=S(=O)([N-]S(=O)(=O)C(F)(F)F)C(F)(F)F [triethylsulfonium bis((trifluoromethyl)sulfonyl)imide],5.849 ± 0.1 mPa·s

# Same assay, conditions: 378.15 K; 101.33 kPa; Liquid; Alternating current cell with electrodes
row,Compound,electrical conductivity [S/m]
1,CCCC[N+]1(C)CCCC1.N#CN=C=[N-] [1-butyl-1-methylpyrrolidinium dicyanamide],6.11 ± 0.092
2,CCCC[n+]1ccccc1.O=S(=O)([N-]S(=O)(=O)C(F)(F)F)C(F)(F)F [1-butylpyridinium bis[(trifluoromethyl)sulfonyl]imide],2.54 ± 0.038
3,CC[S+](C)CC.O=S(=O)([N-]S(=O)(=O)C(F)(F)F)C(F)(F)F [diethylmethylsulfonium bis[(trifluoromethyl)sulfonyl]imide],3.89 ± 0.058
4,CCCCCCCC[N+](C)(CCCCCCCC)CCCCCCCC.O=C([O-])C(F)(F)F [methyltrioctylammonium trifluoroacetate],0.0924 ± 0.0014
5,CC[S+](CC)CC.O=S(=O)([N-]S(=O)(=O)C(F)(F)F)C(F)(F)F [triethylsulfonium bis((trifluoromethyl)sulfonyl)imide],3.92 ± 0.059

# Same assay, conditions: 378.15 K; 101.33 kPa; Liquid; Falling or rolling sphere viscometry
row,Compound,viscosity
1,CCCC[N+]1(C)CCCC1.N#CN=C=[N-] [1-butyl-1-methylpyrrolidinium dicyanamide],6.444 ± 0.12 mPa·s and 5.761 ± 0.11 mPa·s
2,CC[S+](C)CC.O=S(=O)([N-]S(=O)(=O)C(F)(F)F)C(F)(F)F [diethylmethylsulfonium bis[(trifluoromethyl)sulfonyl]imide],5.793 ± 0.1 mPa·s
3,CCCCCCCC[N+](C)(CCCCCCCC)CCCCCCCC.O=C([O-])C(F)(F)F [methyltrioctylammonium trifluoroacetate],26.69 ± 0.52 mPa·s
4,CC[S+](CC)CC.O=S(=O)([N-]S(=O)(=O)C(F)(F)F)C(F)(F)F [triethylsulfonium bis((trifluoromethyl)sulfonyl)imide],4.99 ± 0.087 mPa·s

# Same assay, conditions: 388.15 K; 101.33 kPa; Liquid; Alternating current cell with electrodes
row,Compound,electrical conductivity [S/m]
1,CCCC[N+]1(C)CCCC1.N#CN=C=[N-] [1-butyl-1-methylpyrrolidinium dicyanamide],6.93 ± 0.1
2,CCCC[n+]1ccccc1.O=S(=O)([N-]S(=O)(=O)C(F)(F)F)C(F)(F)F [1-butylpyridinium bis[(trifluoromethyl)sulfonyl]imide],2.94 ± 0.044
3,CC[S+](C)CC.O=S(=O)([N-]S(=O)(=O)C(F)(F)F)C(F)(F)F [diethylmethylsulfonium bis[(trifluoromethyl)sulfonyl]imide],4.43 ± 0.066
4,CCCCCCCC[N+](C)(CCCCCCCC)CCCCCCCC.O=C([O-])C(F)(F)F [methyltrioctylammonium trifluoroacetate],0.125 ± 0.0019
5,CC[S+](CC)CC.O=S(=O)([N-]S(=O)(=O)C(F)(F)F)C(F)(F)F [triethylsulfonium bis((trifluoromethyl)sulfonyl)imide],4.43 ± 0.07

# Same assay, conditions: 388.15 K; 101.33 kPa; Liquid; Falling or rolling sphere viscometry
row,Compound,viscosity
1,CCCC[N+]1(C)CCCC1.N#CN=C=[N-] [1-butyl-1-methylpyrrolidinium dicyanamide],5.605 ± 0.11 mPa·s and 5.001 ± 0.097 mPa·s
2,CC[S+](C)CC.O=S(=O)([N-]S(=O)(=O)C(F)(F)F)C(F)(F)F [diethylmethylsulfonium bis[(trifluoromethyl)sulfonyl]imide],4.981 ± 0.087 mPa·s
3,CCCCCCCC[N+](C)(CCCCCCCC)CCCCCCCC.O=C([O-])C(F)(F)F [methyltrioctylammonium trifluoroacetate],19.8 ± 0.39 mPa·s
4,CC[S+](CC)CC.O=S(=O)([N-]S(=O)(=O)C(F)(F)F)C(F)(F)F [triethylsulfonium bis((trifluoromethyl)sulfonyl)imide],4.312 ± 0.075 mPa·s

# Same assay, conditions: 398.15 K; 101.33 kPa; Liquid; Alternating current cell with electrodes
row,Compound,electrical conductivity [S/m]
1,CCCC[N+]1(C)CCCC1.N#CN=C=[N-] [1-butyl-1-methylpyrrolidinium dicyanamide],7.78 ± 0.12
2,CCCC[n+]1ccccc1.O=S(=O)([N-]S(=O)(=O)C(F)(F)F)C(F)(F)F [1-butylpyridinium bis[(trifluoromethyl)sulfonyl]imide],3.37 ± 0.05
3,CC[S+](C)CC.O=S(=O)([N-]S(=O)(=O)C(F)(F)F)C(F)(F)F [diethylmethylsulfonium bis[(trifluoromethyl)sulfonyl]imide],4.99 ± 0.075
4,CC[S+](CC)CC.O=S(=O)([N-]S(=O)(=O)C(F)(F)F)C(F)(F)F [triethylsulfonium bis((trifluoromethyl)sulfonyl)imide],5 ± 0.075

# Same assay, conditions: 398.15 K; 101.33 kPa; Liquid; Falling or rolling sphere viscometry
row,Compound,viscosity
1,CCCC[N+]1(C)CCCC1.N#CN=C=[N-] [1-butyl-1-methylpyrrolidinium dicyanamide],4.956 ± 0.096 mPa·s and 4.386 ± 0.085 mPa·s
2,CC[S+](C)CC.O=S(=O)([N-]S(=O)(=O)C(F)(F)F)C(F)(F)F [diethylmethylsulfonium bis[(trifluoromethyl)sulfonyl]imide],4.331 ± 0.075 mPa·s
3,CCCCCCCC[N+](C)(CCCCCCCC)CCCCCCCC.O=C([O-])C(F)(F)F [methyltrioctylammonium trifluoroacetate],15.03 ± 0.3 mPa·s
4,CC[S+](CC)CC.O=S(=O)([N-]S(=O)(=O)C(F)(F)F)C(F)(F)F [triethylsulfonium bis((trifluoromethyl)sulfonyl)imide],3.768 ± 0.066 mPa·s

# Same assay, conditions: 408.15 K; 101.33 kPa; Liquid; Alternating current cell with electrodes
row,Compound,electrical conductivity [S/m]
1,CCCC[N+]1(C)CCCC1.N#CN=C=[N-] [1-butyl-1-methylpyrrolidinium dicyanamide],8.67 ± 0.13
2,CC[S+](CC)CC.O=S(=O)([N-]S(=O)(=O)C(F)(F)F)C(F)(F)F [triethylsulfonium bis((trifluoromethyl)sulfonyl)imide],5.58 ± 0.084

# Same assay, conditions: 408.15 K; 101.33 kPa; Liquid; Falling or rolling sphere viscometry
row,Compound,viscosity [mPa·s]
1,CCCC[N+]1(C)CCCC1.N#CN=C=[N-] [1-butyl-1-methylpyrrolidinium dicyanamide],3.905 ± 0.076

# Same assay, conditions: 418.15 K; 101.33 kPa; Liquid; Alternating current cell with electrodes
row,Compound,electrical conductivity [S/m]
1,CCCC[N+]1(C)CCCC1.N#CN=C=[N-] [1-butyl-1-methylpyrrolidinium dicyanamide],9.57 ± 0.14
2,CCCC[n+]1ccccc1.O=S(=O)([N-]S(=O)(=O)C(F)(F)F)C(F)(F)F [1-butylpyridinium bis[(trifluoromethyl)sulfonyl]imide],4.27 ± 0.064
3,CC[S+](C)CC.O=S(=O)([N-]S(=O)(=O)C(F)(F)F)C(F)(F)F [diethylmethylsulfonium bis[(trifluoromethyl)sulfonyl]imide],6.16 ± 0.092
4,CC[S+](CC)CC.O=S(=O)([N-]S(=O)(=O)C(F)(F)F)C(F)(F)F [triethylsulfonium bis((trifluoromethyl)sulfonyl)imide],6.16 ± 0.092

# Source: the NIST ThermoML archive (doi:10.1021/acs.jced.7b00060)
